The text below walks through data of patent publication US9913905B2 (EAGLE BIOLOGICS, INC., priority 2013, dated 2018).

“And” between values parts separate entries of the source, which are not always exact repeats. Equal values may be shown once. Where only a bound is given, the exact number is not on record here.

One data set has as its system biosimilar AVASTIN®. The experiment in a line: Viscosity of concentrated aqueous solutions of biosimilar AVASTIN® (mVROC microfluidic viscometer). The class given is physicochemical.
Another data set deals with REMICADE®. The experiment in a line: Viscosity of concentrated aqueous solutions of […]® (mVROC microfluidic viscometer). The class given is physicochemical.
The test system of another data set is HERCEPTIN®. Kind of data set: Viscosity of concentrated aqueous solutions of HERCEPTIN® (mVROC microfluidic viscometer). The conditions noted are these: organophosphate 0.25M. In kind it is physicochemical.
In another data set the test system is TYSABRI®. Kind of data set: Viscosity of concentrated aqueous solutions of TYSABRI® (mVROC microfluidic viscometer). The class given is physicochemical. The conditions noted are these: organophosphate 0.25M.
The test system of data set [1] is respiratory syncytial virus. The conditions noted are these: two Phase III clinical trials in the pediatric population; cited from earlier work.
The next data set deals with biosimilar RITUXAN®. Kind of data set: Viscosity of concentrated aqueous solutions of biosimilar RITUXAN® (mVROC microfluidic viscometer). The class given is physicochemical. The conditions noted are these: organophosphate 0.10M. As for the experimental part: (unless otherwise indicated).
A commercially-obtained biosimilar AVASTIN® (100-400 mg) containing pharmaceutical excipients (Polysorbate 20, phosphate and citrate buffers, mannitol, and NaCl) was purified. […] Samples buffer exchanged into 2 mM PB were first aliquoted. […] For samples buffer exchanged into 20 mM PB (PB control samples), the collected protein solution was freeze-dried. […] Using the same protocol, formulations containing biosimilar ERBITUX®, TYSABRI®, HERCEPTIN®, and […]® were also prepared.

Another data set relates to biosimilar ERBITUX®. The experiment in a line: Viscosity of concentrated aqueous solutions of biosimilar ERBITUX® (mVROC microfluidic viscometer). The class given is physicochemical. The conditions noted are these: Biosimilar ERBITUX® 215 mg/mL; excipient 0.25M.
Data set [2] relates to therapeutically relevant mAbs. The conditions noted are these: in some cases; Table 3.
Where [3] appears, read: [Excipient] 0.10 M, [mAb] 217 mg/mL, 25° C., pH 7.

For `C=C(OP(=O)(O)O)C(=O)O` [Phosphoenol pyruvate], the Viscosity in the data set with biosimilar AVASTIN® ([Excipient] 0.25 M, [mAb] 193 mg/mL, 25° C., pH 7) is recorded as >>200 cP.

In the data set on biosimilar AVASTIN® (setting [3]), `Nc1nc2c(ncn2[C@H]2CC(O)[C@@H](COP(=O)(O)OP(=O)(O)OP(=O)(O)O)O2)c(=O)[nH]1` (some centres unmarked) [dGTP-Tris, deoxyguanosine triphosphate] registered a Viscosity of 238 ± 31 cP.

As for `Nc1ncnc2c1ncn2[C@@H]1O[C@H](COP(=O)(O)OP(=O)(O)O)[C@@H](O)[C@H]1O` [ADP, Adenosine Diphosphate], the Viscosity in the data set with biosimilar AVASTIN® ([Excipient] 0.10 M, [mAb] 215 mg/mL, 25° C., pH 7) turned out to be 76.6 ± 2.2 cP.

In the data set on biosimilar AVASTIN® ([Excipient] 0.10 M, [mAb] 196 mg/mL, 25° C., pH 7), `Nc1ncnc2c1ncn2[C@H]1C[C@H](O)[C@@H](COP(=O)(O)OP(=O)(O)OP(=O)(O)O)O1` [dATP-Tris, deoxyadenosine triphosphate] showed a Viscosity of 127 ± 0.2 cP.

As for `Cc1ncc(C[n+]2csc(CCOP(=O)(O)OP(=O)([O-])O)c2C)c(N)n1.Cc1nccn1CCCN` [TPP-APMI, thiamine pyrophosphate 1-(3-aminopropyl)-2-methyl-1H-imidazole], the Viscosity is recorded as 316 ± 11 cP with REMICADE® (REMICADE® 223 mg/mL, organophosphate 0.25M); 23.2 ± 0.9 cP with biosimilar AVASTIN® (Table 2, [Excipient] 0.10 M, [biosimilar AVASTIN®] 191 mg/mL); 20.9 ± 0.4 cP with biosimilar AVASTIN® (Table 2, [Excipient] 0.20 M, [biosimilar AVASTIN®] 180 mg/mL); 111 ± 1 cP in the data set with biosimilar AVASTIN® (Table 2, [Excipient] 0.50 M, [biosimilar AVASTIN®] 180 mg/mL); 60.5 ± 0.3 cP in the data set on HERCEPTIN® (HERCEPTIN® 221 mg/mL); 76.3 ± 3.2 cP with TYSABRI® (TYSABRI® 238 mg/mL).

Consider “palivizumab: humanized mAb directed against an epitope in the A antigenic site of the F protein of respiratory syncytial virus”, for which, in data set [1], the “Reduction of the risk of hospitalization due to respiratory syncytial virus infection” value is 55% and 45%.

In the case of `Nc1nc2c(ncn2[C@@H]2O[C@H](COP(=O)(O)OP(=O)(O)OP(=O)(O)O)[C@@H](O)[C@H]2O)c(=O)[nH]1` [GTP], the Viscosity in the data set on biosimilar AVASTIN® ([Excipient] 0.10 M, [mAb] 205 mg/mL, 25° C., pH 7) is on record as 150 ± 12 cP.

For `Cc1ncc(C[n+]2csc(CCOP(=O)(O)OP(=O)(O)O)c2C)c(N)n1.[Cl-]` [TPP, thiamine pyrophosphate], the Viscosity in the data set with REMICADE® (REMICADE® 158 mg/mL, organophosphate 0.10M) is 100 ± 9 cP; in the data set on REMICADE® (REMICADE® 232 mg/mL, organophosphate 0.25M), 1773 ± 304 cP; in the data set on biosimilar AVASTIN® (Table 2, [Excipient] 0.10 M, [biosimilar AVASTIN®] 176 mg/mL), 21.1 ± 1.7 cP; in the data set on biosimilar AVASTIN® (Table 2, [Excipient] 0.30 M, [biosimilar AVASTIN®] 191 mg/mL), 129 ± 5 cP; in the data set with biosimilar AVASTIN® (Table 3, Biosimilar AVASTIN® 216 mg/mL, organophosphate 0.1M) it was 47.6 ± 2.7 cP; in the data set with biosimilar AVASTIN® ([Excipient] 0.10 M, [mAb] 201 mg/mL, 25° C., pH 7), 34.6 ± 2.1 cP. Moreover, the Viscosity in the data set with biosimilar AVASTIN® ([Excipient] 0.10 M, [mAb] 216 mg/mL, 25° C., pH 7) came out at 47.6 ± 2.7 cP; in the data set with biosimilar AVASTIN® ([Excipient] 0.25 M, [mAb] 210 mg/mL, 25° C., pH 7), 44.5 ± 0.9 cP; in the data set on HERCEPTIN® (HERCEPTIN® 240 mg/mL) it was 156 ± 3 cP; in the data set with biosimilar RITUXAN® (Biosimilar RITUXAN® 193 mg/mL) it was 102 ± 16 cP; in the data set on biosimilar ERBITUX® it was 55.6 ± 4.8 cP. Further, the “Viscosity reducing ability among the organophosphates examined” value with biosimilar AVASTIN® (Table 1, biosimilar AVASTIN®) was “greatest viscosity reducing ability”.

Take `Nc1ncnc2c1ncn2[C@@H]1O[C@H](COP(=O)(O)OP(=O)([O-])OP(=O)([O-])O)[C@@H](O)[C@H]1O.[Na+].[Na+]` [ATP, adenosine triphosphate]: the Viscosity amounted to 52.3 ± 2.3 cP with biosimilar AVASTIN® ([Excipient] 0.10 M, [mAb] 209 mg/mL, 25° C., pH 7) and 80.7 ± 7.1 cP in the data set with biosimilar AVASTIN® (setting [3]).

`Nc1ncnc2c1ncn2[C@@H]1O[C@H](COP(=O)(O)O)[C@@H](O)[C@H]1O` [AMP, Adenosine Monophosphate] showed a Viscosity with biosimilar AVASTIN® ([Excipient] 0.10 M, [mAb] 206 mg/mL, 25° C., pH 7) of 63.2 ± 1.6 cP.

`Nc1ncnc2c1ncn2[C@@H]1O[C@@H]2COP(=O)(O)OC2C1O` (some centres unmarked) [cAMP-Tris, cyclic adenosine monophosphate]: the Viscosity came out at 39.2 ± 4.3 cP in the data set with biosimilar AVASTIN® (Table 2, [Excipient] 0.40 M, [biosimilar AVASTIN®] 176 mg/mL); 66.1 ± 0.4 cP with biosimilar AVASTIN® (Table 2, [Excipient] 0.50 M, [biosimilar AVASTIN®] 178 mg/mL); 85.7 ± 10.7 cP in the data set with biosimilar AVASTIN® (Table 3, Biosimilar AVASTIN® 216 mg/mL, organophosphate 0.25M); 62.1 ± 1.8 cP with biosimilar AVASTIN® ([Excipient] 0.25 M, [mAb] 209 mg/mL, 25° C., pH 7); 85.7 ± 10.7 cP in the data set with biosimilar AVASTIN® ([Excipient] 0.25 M, [mAb] 216 mg/mL, 25° C., pH 7); 79.5 ± 2.7 cP in the data set with HERCEPTIN® (HERCEPTIN® 235 mg/mL). The figures for the Viscosity in the data set on TYSABRI® (TYSABRI® 227 mg/mL) and in the data set on biosimilar RITUXAN® (Biosimilar RITUXAN® 199 mg/mL) were 80.1 ± 2.4 cP and 62.6 ± 1.7 cP, respectively. For the same molecule, in data set [2], the Reduction of viscosity result is listed as “up to 9 fold”.

With `CN(CC(=O)O)C(=N)NP(=O)(O)O` [Phosphocreatine], the Viscosity with biosimilar AVASTIN® ([Excipient] 0.25 M, [mAb] 231 mg/mL, 25° C., pH 7) is >>200 cP.

For the molecule `Nc1ccn([C@H]2C[C@H](O)[C@@H](COP(=O)(O)OP(=O)(O)OP(=O)(O)O)O2)c(=O)n1` [dCTP-Tris, deoxycytidine triphosphate], the Viscosity with biosimilar AVASTIN® (setting [3]) is listed as 325 ± 13 cP.

Turning to “nicotinamide adenine dinucleotide phosphate [NADP]”, the Viscosity was found to be 165 ± 23 cP in the data set with biosimilar AVASTIN® ([Excipient] 0.10 M, [mAb] 204 mg/mL, 25° C., pH 7) and 242 ± 16 cP in the data set with biosimilar AVASTIN® ([Excipient] 0.25 M, [mAb] 186 mg/mL, 25° C., pH 7).

Turning to `Cc1cn([C@H]2CC(O)[C@@H](COP(=O)(O)OP(=O)(O)OP(=O)(O)O)O2)c(=O)[nH]c1=O` (some centres unmarked) [dTTP-Tris, deoxythymidine triphosphate], the Viscosity with biosimilar AVASTIN® ([Excipient] 0.10 M, [mAb] 221 mg/mL, 25° C., pH 7) came to 207 ± 6 cP.
